Source: the supplement of paper PMC10307832

Legend:
Experiment in all cases: relative viability (nuclei count vs DMSO), 5 days (fraction); higher = more cells survive
[1] = compound: CC1=CC(=NN1)NC2=CC(=NC(=N2)/C=C/C3=CC=CC=C3)N4CCN(CC4)C + Cc1cc(Nc2cc(N3CCN(C)CC3)nc(Sc3ccc(NC(=O)C4CC4)cc3)n2)n[nH]1 [Tozasertib] (partner 0.1 µM)
How it was run: (§1)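 Five library-drug doses in √10 steps were combined with a fixed anchor-drug dose, or a single drug was given alone, by pin tool to lung cancer cell lines in 1536-well plates the day after seeding. Nuclei were stained and counted after 5 days. Relative viability is the nuclei count in treated wells over that in vehicle wells, taken as the median of duplicate plates.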

Obatoclax + AZD7762 = compound: COC1=CC(c2cc3ccccc3[nH]2)=N/C1=C\c1[nH]c(C)cc1C [Obatoclax] + NC(=O)Nc1cc(-c2cccc(F)c2)sc1C(=O)N[C@H]1CCCNC1 [AZD7762] (partner 0.2 µM)
How it was run: as §1

[2] = compound: CC1=CC(=NN1)NC2=CC(=NC(=N2)/C=C/C3=CC=CC=C3)N4CCN(CC4)C + C[C@@H](Oc1cc(-c2cnn(C3CCNCC3)c2)cnc1N)c1c(Cl)ccc(F)c1Cl [Crizotinib] (partner 1 µM)
How it was run: as §1

Cell Line | relative viability ([1]; first compound 0.08 µM) | relative viability ([1]; first compound 0.253 µM) | relative viability ([1]; first compound 0.8 µM) | relative viability ([1]; first compound 2.53 µM) | relative viability ([1]; first compound 8 µM) | relative viability (Obatoclax + AZD7762; first compound 0.01 µM) | relative viability (Obatoclax + AZD7762; first compound 0.03162 µM) | relative viability (Obatoclax + AZD7762; first compound 0.1 µM) | relative viability (Obatoclax + AZD7762; first compound 0.3162 µM) | relative viability (Obatoclax + AZD7762; first compound 1 µM) | relative viability ([2]; first compound 0.08 µM) | relative viability ([2]; first compound 0.253 µM) | relative viability ([2]; first compound 0.8 µM) | relative viability ([2]; first compound 2.53 µM) | relative viability ([2]; first compound 8 µM)
NCI-H2342 | 0.527 | 0.503 | 0.438 | 0.376 | 0.324 | 0.614 | 0.392 | 0.51 | 0.363 | 0.389 | – | – | – | – | –
HCC-827 | 0.404 | 0.375 | 0.422 | 0.355 | 0.236 | 0.244 | 0.234 | 0.215 | 0.202 | 0.261 | 0.91 | 0.999 | 0.877 | 0.636 | 0.381
NCI-H322M | 0.509 | 0.521 | 0.506 | 0.3 | 0.229 | 0.538 | 0.556 | 0.549 | 0.399 | 0.4 | 0.97 | 0.866 | 0.817 | 0.447 | 0.128
ChaGo-K-1 | 0.222 | 0.227 | 0.217 | 0.195 | 0.172 | 0.892 | 0.88 | 0.831 | 0.881 | 0.914 | 1.1 | 1.07 | 1.13 | 0.484 | 0.267
NCI-H2228 | 0.193 | 0.214 | 0.158 | 0.086 | 0.0648 | – | – | – | – | – | 0.586 | 0.45 | 0.33 | 0.0992 | 0.0441
Calu-6 | – | – | – | – | – | – | – | – | – | – | 0.735 | 0.622 | 0.345 | 0.197 | 0.101
SK-MES-1 | 0.881 | 0.912 | 0.656 | 0.177 | 0.13 | – | – | – | – | – | 0.96 | 1.01 | 0.903 | 0.422 | 0.133
COR-L 105 | 0.372 | 0.304 | 0.348 | 0.248 | 0.246 | – | – | – | – | – | 0.897 | 0.731 | 0.445 | 0.222 | 0.191
NCI-H520 | 0.432 | 0.464 | 0.381 | 0.307 | 0.176 | – | – | – | – | – | 0.798 | 0.778 | 0.473 | 0.251 | 0.0942
NCI-H522 | 0.559 | 0.579 | 0.684 | 0.462 | 0.399 | 0.823 | 0.664 | 0.915 | 0.92 | 0.883 | – | – | – | – | –
NCI-H1563 | – | – | – | – | – | – | – | – | – | – | 0.985 | 0.896 | 0.904 | 0.65 | 0.614
NCI-H1703 | – | – | – | – | – | 0.135 | – | – | 0.138 | 0.126 | 0.636 | 0.597 | 0.339 | 0.101 | 0.0884
NCI-H661 | 0.321 | 0.344 | 0.339 | 0.382 | 0.394 | – | – | – | – | – | – | 1.23 | 1.08 | 0.945 | 0.383
NCI-H1648 | 0.42 | 0.543 | 0.643 | 0.46 | 0.215 | 0.701 | 0.754 | 1 | 0.77 | 0.886 | – | – | – | – | –
